Read-outs that look alike come from different tables or passages of the source.
Key:
NA transporter [1] = target: NA transporter (Homo sapiens, UniProt P23975); experiment: ^3H-Nisoxetine binding, human
Text: Compound (I) has been characterized as a monoamine reuptake inhibitor, based on the profile in a series of functional assays (Table 2).

Serotonin 5-HT3 = target: T1, Serotonin 5-HT3 (Homo sapiens, UniProt P46098); experiment: MDS LeadProfilingScreen, Serotonin 5-HT3; type: binding
T1 sequence (P46098 24-478): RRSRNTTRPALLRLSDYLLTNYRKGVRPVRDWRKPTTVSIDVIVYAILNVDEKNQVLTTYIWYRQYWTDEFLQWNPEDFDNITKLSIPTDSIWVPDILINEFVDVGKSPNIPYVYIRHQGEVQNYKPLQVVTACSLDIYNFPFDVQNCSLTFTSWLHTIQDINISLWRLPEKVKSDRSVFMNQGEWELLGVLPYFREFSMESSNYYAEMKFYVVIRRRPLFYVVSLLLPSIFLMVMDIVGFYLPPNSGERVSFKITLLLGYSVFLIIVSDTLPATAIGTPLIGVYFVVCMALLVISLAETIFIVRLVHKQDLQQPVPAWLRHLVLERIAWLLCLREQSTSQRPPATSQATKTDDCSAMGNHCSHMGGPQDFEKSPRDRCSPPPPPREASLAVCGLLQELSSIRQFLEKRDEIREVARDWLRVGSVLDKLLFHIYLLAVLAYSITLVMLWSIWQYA

DA transporter = target: T2, DA transporter (Mus musculus, UniProt Q61327); experiment: In vivo ^3H-WIN 35.428 binding (DA transporter occupancy), PD/PK
T2 construct: in vivo DAT transporter occupancy (open bars) in mouse striatum; from tissue; host or cells: mouse striatum (in vivo; C57 mice in the MPTP model)
Procedure: The relationship between brain concentrations of compound (I) and transporter occupancy was investigated in in vivo ^3H-WIN 35.428 binding in mice. A relationship between increasing plasma and brain concentrations with each increase in dose level, and a corresponding increase in CNS in vivo DA transporter occupancy 90 min post administration. In both cases there was a close correlation between plasma and brain concentrations and in vivo transporter occupancy in brain, the brain to plasma ratio was approximately 4 at 3, 10 and 30 mg/kg (FIG. 1). […] The inhibition of in vivo WIN binding was measured 90 min after p.o. administration of the compound.
(§1) The in vivo receptor occupancy (RO %) of compound (I) was calculated at the MED values (DOSE) in mFST and in the mouse motility test using the formula RO % (estimated)=DOSE 100/(ED50+DOSE). The calculations were based on ED50 values in ex vivo uptake of 5-HT and NA and WIN in vivo binding.
It is known that the critical factor for psychomimetic side effects of a dopaminergic drug is the speed of inhibition of the DA transporter rather than the increase in DA release per se.

5-HT transporter = target: T3, 5-HT transporter (Mus musculus, UniProt Q60857); experiment: Ex vivo 5-HT uptake in mice
T3 construct: from tissue; host or cells: tissue of dosed animals (ex vivo)
Procedure: as §1

NA transporter [2] = target: T4, NA transporter (Mus musculus, UniProt O55192); experiment: Ex vivo NA uptake in mice
T4 construct: from tissue; host or cells: tissue of dosed animals (ex vivo)
Procedure: as §1

[3] = Linearity after single p.o. dose in mouse; type: in vivo; settings: for AUC(0-inf) / bioavailability / half-life: female, NMRI, mouse; for AUC(0-inf) / bioavailability / half-life / Cmax / Tmax: plasma, po; for bioavailability: compared to 10 mg/kg i.v.; for half-life: read-out: T½ (converted); for Cmax / Tmax: female NMRI mouse; for Tmax: 5% Tween 80
CYP1A2 = CYP1A2 (Homo sapiens, UniProt P05177); experiment: CYP450 inhibition, cocktail of selective substrates, 1A2; type: in vitro ADME; settings: CYP 1A2, Phenacetin to Paracetamol; read-out: IC50 of compound (I)
Procedure: (§2) Compound (I) was tested for CYP450 inhibition using a cocktail of selective substrates. […] This might be addressed later in a clinical study.

CYP 2C9 = CYP 2C9 (Homo sapiens, UniProt P11712); experiment: CYP450 inhibition, cocktail of selective substrates, 2C9; type: in vitro ADME; settings: CYP 2C9, Tolbutamide to 4-hydroxytolbutamide; read-out: IC50 of compound (I)
Procedure: as §2

CYP 2C19 = CYP 2C19 (Homo sapiens, UniProt P33261); experiment: CYP450 inhibition, cocktail of selective substrates, 2C19; type: in vitro ADME; settings: CYP 2C19, Omeprazole to 5-hydroxyomeprazole; read-out: IC50 of compound (I)
Procedure: as §2

[4] = 5 days p.o. tolerated dose study in female rats (non-GLP); type: in vivo, rat; settings: p.o. 5 days, 30, 60, 90 mg/kg
[5] = 14-day repeat-dose study in Wistar rats; type: in vivo, rat
Procedure: In a 14-day repeat-dose study 4 groups of 4 male and 4 female Wistar rats were treated daily with either compound (I) at doses of 5, 10 and 15 mg/kg s.c. (Groups 2, 3 and 4), or vehicle, 5% glucose s.c. (Group 1). A satellite group 25 mg/kg s.c. (group5) was conducted accordingly to increase the exposure and efficacy.

mice erectile tissue = experiment: Penile flow by laser doppler in mice; type: in vivo, mouse
Procedure: FIG. 33: Flow laser doppler raw data from mice erectile function (top), and average flow changes (EF) in mice erectile tissue (bottom). The increase in penile flow induced by compound (I) (1 mg/kg) was highly significant and increased 4.99 times, n=2.
A laser doppler flow probe was positioned in situ in mice erectile tissue for measurement of penile basal flow in the absence and the presence of compound (I).

[6] = Cardiovascular safety in anaesthetised dogs
Procedure: Data presented are mean±s.e. mean where n=4 for all time points, excluding D2t7 where n=3, D3t7 where n=2, and D4t7 and D4t26 where no data was available. Animals received 1, 3, 10, and 30 mg/kg compound (I) as 4 intravenous infusions (starting at t0, D1t30, D2t30 and D3t30, respectively). Each dose was administered over 5 min, using an infusion pump, and the dose volume for each treatment was 2 ml/kg, with the exception of the fourth dose which was 3 ml/kg.
Data presented are mean±s.e. mean where n=4 for all time points, excluding D4t7 and D4t26 where no data was available. Animals received 1, 3, 10, and 30 mg/kg compound (I) as 4 intravenous infusions (starting at t0, D1t30, D2t30 and D3t30, respectively). Each dose was administered over 5 min, using an infusion pump, and the dose volume for each treatment was 2 ml/kg, with the exception of the fourth dose which was 3 ml/kg.

[7] = estimated at MED in mFST (NMRI mice), DOSE 1 mg/kg
[8] = estimated at MED in mMotility, DOSE 10 mg/kg
[9] = 15 mg/kg s.c. 14 days (Group 4)
[10] = 25 mg/kg s.c. 14 days (Group 5)

T2 sequence (Q61327 whole entry): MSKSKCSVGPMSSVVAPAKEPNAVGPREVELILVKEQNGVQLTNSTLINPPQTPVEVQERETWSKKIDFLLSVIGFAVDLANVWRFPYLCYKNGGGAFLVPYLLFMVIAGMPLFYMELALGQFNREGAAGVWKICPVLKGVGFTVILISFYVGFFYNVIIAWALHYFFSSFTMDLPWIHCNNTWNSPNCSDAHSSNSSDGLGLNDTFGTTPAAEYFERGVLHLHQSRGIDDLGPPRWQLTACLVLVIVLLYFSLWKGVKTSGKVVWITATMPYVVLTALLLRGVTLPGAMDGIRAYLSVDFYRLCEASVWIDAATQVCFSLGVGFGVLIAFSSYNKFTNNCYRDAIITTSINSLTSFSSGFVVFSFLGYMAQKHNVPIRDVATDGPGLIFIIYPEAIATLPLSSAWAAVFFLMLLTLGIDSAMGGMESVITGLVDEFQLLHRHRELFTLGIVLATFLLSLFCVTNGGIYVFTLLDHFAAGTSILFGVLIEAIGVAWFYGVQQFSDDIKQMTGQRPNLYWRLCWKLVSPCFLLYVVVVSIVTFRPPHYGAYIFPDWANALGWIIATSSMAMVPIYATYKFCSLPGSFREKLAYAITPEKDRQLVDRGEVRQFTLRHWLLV
T4 sequence (O55192 whole entry): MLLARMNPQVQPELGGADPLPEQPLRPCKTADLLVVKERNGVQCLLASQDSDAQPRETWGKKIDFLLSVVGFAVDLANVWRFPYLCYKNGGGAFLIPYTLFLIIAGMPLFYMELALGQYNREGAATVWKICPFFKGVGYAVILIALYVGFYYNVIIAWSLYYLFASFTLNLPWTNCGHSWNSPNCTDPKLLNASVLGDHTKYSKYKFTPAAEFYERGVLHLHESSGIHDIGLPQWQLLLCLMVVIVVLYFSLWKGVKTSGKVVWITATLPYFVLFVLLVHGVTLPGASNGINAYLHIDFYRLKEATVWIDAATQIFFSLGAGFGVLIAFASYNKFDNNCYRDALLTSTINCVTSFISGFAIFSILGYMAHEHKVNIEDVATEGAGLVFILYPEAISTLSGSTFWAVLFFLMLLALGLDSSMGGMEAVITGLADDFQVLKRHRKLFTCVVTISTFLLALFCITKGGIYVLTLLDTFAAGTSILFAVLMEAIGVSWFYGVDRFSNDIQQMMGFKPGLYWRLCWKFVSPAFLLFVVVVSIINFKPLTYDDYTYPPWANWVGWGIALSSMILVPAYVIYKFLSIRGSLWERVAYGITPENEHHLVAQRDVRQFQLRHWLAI
T3 sequence (Q60857 whole entry): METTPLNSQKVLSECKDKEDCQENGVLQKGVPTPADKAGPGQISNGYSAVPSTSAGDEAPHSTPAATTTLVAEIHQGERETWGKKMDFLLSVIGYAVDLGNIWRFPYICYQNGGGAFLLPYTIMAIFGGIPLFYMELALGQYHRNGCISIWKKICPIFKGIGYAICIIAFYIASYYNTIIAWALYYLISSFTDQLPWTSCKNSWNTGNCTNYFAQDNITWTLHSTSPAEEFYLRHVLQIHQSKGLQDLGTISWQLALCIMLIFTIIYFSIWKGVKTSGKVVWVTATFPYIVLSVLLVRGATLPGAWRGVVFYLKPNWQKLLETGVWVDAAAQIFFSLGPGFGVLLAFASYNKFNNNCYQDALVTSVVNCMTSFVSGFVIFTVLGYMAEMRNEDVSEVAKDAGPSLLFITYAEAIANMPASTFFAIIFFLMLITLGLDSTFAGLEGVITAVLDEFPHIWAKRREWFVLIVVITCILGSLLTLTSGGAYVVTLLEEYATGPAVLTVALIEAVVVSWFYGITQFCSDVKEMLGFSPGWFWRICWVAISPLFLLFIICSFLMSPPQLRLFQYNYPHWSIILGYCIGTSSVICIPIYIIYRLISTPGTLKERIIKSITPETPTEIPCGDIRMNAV
Chain of CYP1A2 (P05177 whole entry): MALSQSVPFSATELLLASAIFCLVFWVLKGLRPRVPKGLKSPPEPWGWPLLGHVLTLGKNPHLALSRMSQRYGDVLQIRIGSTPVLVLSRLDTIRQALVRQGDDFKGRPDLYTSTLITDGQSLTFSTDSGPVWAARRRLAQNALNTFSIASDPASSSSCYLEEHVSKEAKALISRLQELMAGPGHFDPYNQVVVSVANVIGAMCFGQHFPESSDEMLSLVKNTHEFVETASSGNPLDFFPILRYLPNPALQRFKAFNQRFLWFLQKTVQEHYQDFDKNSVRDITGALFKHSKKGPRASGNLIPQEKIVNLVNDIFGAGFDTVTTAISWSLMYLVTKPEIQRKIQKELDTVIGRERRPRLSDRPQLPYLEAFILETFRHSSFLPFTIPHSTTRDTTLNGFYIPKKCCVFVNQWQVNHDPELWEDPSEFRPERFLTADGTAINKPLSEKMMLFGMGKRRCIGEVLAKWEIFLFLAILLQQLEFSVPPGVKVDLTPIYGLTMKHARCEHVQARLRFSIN
Chain of CYP 2C19 (P33261 whole entry): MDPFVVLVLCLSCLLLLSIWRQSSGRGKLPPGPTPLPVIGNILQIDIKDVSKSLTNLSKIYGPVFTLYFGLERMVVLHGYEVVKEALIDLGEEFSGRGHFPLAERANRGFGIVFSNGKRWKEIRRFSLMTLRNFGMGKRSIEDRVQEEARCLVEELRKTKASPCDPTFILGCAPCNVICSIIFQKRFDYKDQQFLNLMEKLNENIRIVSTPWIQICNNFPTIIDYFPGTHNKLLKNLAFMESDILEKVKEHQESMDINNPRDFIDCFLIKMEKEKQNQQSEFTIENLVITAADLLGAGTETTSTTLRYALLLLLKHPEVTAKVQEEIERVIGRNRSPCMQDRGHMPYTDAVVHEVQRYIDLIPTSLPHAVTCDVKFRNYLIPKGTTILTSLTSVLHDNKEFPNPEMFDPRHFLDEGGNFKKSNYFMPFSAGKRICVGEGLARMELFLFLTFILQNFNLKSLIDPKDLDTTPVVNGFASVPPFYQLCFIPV
Chain of NA transporter (Homo sapiens, UniProt P23975) (P23975 whole entry): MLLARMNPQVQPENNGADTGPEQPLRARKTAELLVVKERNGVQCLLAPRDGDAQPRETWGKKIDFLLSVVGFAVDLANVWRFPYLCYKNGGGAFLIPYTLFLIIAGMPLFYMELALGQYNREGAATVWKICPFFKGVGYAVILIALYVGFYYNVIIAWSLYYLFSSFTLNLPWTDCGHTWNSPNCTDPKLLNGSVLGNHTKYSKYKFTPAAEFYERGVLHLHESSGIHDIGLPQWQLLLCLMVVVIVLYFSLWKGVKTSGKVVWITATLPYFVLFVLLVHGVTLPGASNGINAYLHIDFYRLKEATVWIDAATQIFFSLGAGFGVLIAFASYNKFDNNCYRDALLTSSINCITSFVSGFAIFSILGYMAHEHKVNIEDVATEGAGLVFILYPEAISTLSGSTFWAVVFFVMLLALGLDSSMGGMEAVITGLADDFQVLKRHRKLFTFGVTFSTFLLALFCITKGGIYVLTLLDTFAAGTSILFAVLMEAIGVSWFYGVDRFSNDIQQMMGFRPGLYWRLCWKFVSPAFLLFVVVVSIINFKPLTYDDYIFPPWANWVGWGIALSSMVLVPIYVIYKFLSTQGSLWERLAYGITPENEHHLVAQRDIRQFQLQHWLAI
Chain of CYP 2C9 (P11712 whole entry): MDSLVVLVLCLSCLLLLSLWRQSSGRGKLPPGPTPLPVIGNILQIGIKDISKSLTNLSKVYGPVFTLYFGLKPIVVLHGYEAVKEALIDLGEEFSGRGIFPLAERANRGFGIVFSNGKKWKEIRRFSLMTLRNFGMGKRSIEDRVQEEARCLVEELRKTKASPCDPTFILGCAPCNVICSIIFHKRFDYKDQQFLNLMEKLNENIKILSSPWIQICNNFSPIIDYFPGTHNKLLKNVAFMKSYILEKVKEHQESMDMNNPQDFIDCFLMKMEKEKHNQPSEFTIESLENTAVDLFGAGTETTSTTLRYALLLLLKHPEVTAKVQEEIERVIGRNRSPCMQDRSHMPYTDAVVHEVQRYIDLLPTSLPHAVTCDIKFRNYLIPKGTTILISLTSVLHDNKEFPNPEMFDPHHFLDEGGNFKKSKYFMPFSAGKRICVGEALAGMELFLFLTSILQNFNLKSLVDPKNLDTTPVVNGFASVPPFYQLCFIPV

With `O=c1ccc2ccc(O[C@@H]3C[C@H]4CC[C@@H](C3)N4)cc2o1` [Compound (I), exo-7-(8-aza-bicyclo[3.2.1]oct-3-yloxy)-chromen-2-one] the Ki (NA transporter [1]) was 270 nM, the Ki (Serotonin 5-HT3) was 1040 nM and the “Separation to transporter hDAT” value (Serotonin 5-HT3; 5-HT3 Ki versus hDAT Ki 155 nM) was “x6.7”. The “Separation to transporter hNET” value (Serotonin 5-HT3; 5-HT3 Ki versus hNET Ki 594 nM) was “x1.7”, the inhibition at 10 µM (Serotonin 5-HT3; Serotonin 5-HT3, Human, 10 μM) was 86% and the “DA RO %” value (DA transporter; [7]) was 9%. For the same compound, the “DA RO %” value (DA transporter; [8]) was 50%, the “In vivo WIN binding time course” value (DA transporter; mice, 20 mg/kg p.o.) was “slow onset of DA transporter blockade in vivo” and the Kp at 1.5 h (DA transporter; mouse, brain, po, mice, 3, 10 and 30 mg/kg p.o., 90 min post administration, read-out: Brain to plasma ratio) was ~4. The ED50 (DA transporter; mouse, po, read-out: ED50 in WIN in vivo binding in mice) was 9.9 mg/kg, the “5-HT RO %” value (5-HT transporter; [7]) was 34% and the “5-HT RO %” value (5-HT transporter; [8]) was 84%. The ED50 (5-HT transporter; mouse, po) was 1.9 mg/kg, the “NA RO %” value (NA transporter [2]; [7]) was <1.9% and the “NA RO %” value (NA transporter [2]; [8]) was <17%. For the same compound, the ED50 (NA transporter [2]; mouse, po) was > 50 mg/kg, the AUC(0-inf) ([3]; 30 mg/kg p.o.) was 14300 ng·h/mL and the bioavailability ([3]; 30 mg/kg p.o.) was 206%. For the same compound, the half-life ([3]; 30 mg/kg p.o.) was 306 min, the AUC(0-inf) ([3]; 60 mg/kg p.o.) was 34700 ng·h/mL and the bioavailability ([3]; 60 mg/kg p.o.) was 250%. The half-life ([3]; 60 mg/kg p.o.) was 366 min, the “Linearity of kinetics (AUC versus dose)” value ([3]; mice, relatively high doses p.o., single dose) was “tendency to sub-linear kinetics” and the Cmax ([3]; 30 mg/kg p.o.) was 3080 ng/mL. It also gave a Tmax ([3]; 30 mg/kg p.o.) of 30 min, a Cmax ([3]; 60 mg/kg p.o.) of 4150 ng/mL and a Tmax ([3]; 60 mg/kg p.o.) of 30 min. The IC50 (CYP1A2) was 3.5 µM, the IC50 (CYP 2C9) was > 100 µM and the IC50 (CYP 2C19) was > 100 µM. For the same compound, the Activity [4] was “increased activity”, the Body weight gain [4] was “no changes in body weight gain” and the Activity [5, 9] was “increased activity in both males and females”. The Body weight gain [5, 9] was “No changes in body weight gain were observed in the female rats, but a tendency to increased bodyweight in the group 4 males”, the Relative liver weights [5, 9] was “reduced in group 4 females and increased in group 4 males” and the Activity [5, 10] was “increased activity in both male and female”. The Body weight [5, 10] was “minimal decreased body weight”, the Liver weight [5, 10] was “No changes in liver weight” and the “Macroscopic findings at termination” value ([5]; s.c. 14 days) was “no treatment-related macroscopic findings”. The “Increase in penile flow” value (mice erectile tissue; 1 mg/kg, n=2) was 4.99 times, the Penile flow (mice erectile tissue; infusion of 1 mg/kg) was “markedly increased” and the Heart rate ([6]; 1, 3, 10 and 30 mg/kg i.v.) was “Dose-dependent increases”. The RR interval ([6]; 1, 3, 10 and 30 mg/kg i.v.) was “dose-dependent decreases”, the “Arterial blood pressure (mean, systolic and diastolic)” value ([6]; 1, 3, 10 and 30 mg/kg i.v., apparent decrease following 10 and 30 mg/kg) was “No consistent changes” and the “PR interval and QRS duration” value ([6]; 1, 3, 10 and 30 mg/kg i.v., potential PR shortening at 30 mg/kg) was “relatively unaffected”. For the same compound, the concentration at 5 min ([6]; beagle, dog, plasma, intravenous) was 6500 to 15000 ng/mL and the “QTcF and QTcV intervals” value ([6]; corrected for heart rate/RR interval, also when paced at 90 or 110 bpm) was “clear dose-dependent increase”.

From US20220288052A1, “COMPOUND FOR COMBINATION TREATMENT” (priority 2019, published 2022)
